The results in this text go back to PubChem BioAssay AID743370.

Activity calls are given as the source filed them. No rule for the calls is given here.

The target in this assay is Acetylcholine receptor subunit alpha (Tetronarce californica) + Acetylcholine receptor subunit beta (Tetronarce californica) + Acetylcholine receptor subunit gamma (Tetronarce californica) + Acetylcholine receptor subunit delta (Tetronarce californica) (UniProt P02710+P02712+P02714+P02718). Put plainly: Torpedo nAChR binders, biochemical, Torpedo californica electric organ membranes, [125I]alpha-bungarotoxin (AID 743370). The settings on record: [125I]alpha-bungarotoxin displacement.
Acetylcholine receptor subunit alpha (Tetronarce californica) + Acetylcholine receptor subunit beta (Tetronarce californica) + Acetylcholine receptor subunit gamma (Tetronarce californica) + Acetylcholine receptor subunit delta (Tetronarce californica), sequence (P02710 whole entry, looked up): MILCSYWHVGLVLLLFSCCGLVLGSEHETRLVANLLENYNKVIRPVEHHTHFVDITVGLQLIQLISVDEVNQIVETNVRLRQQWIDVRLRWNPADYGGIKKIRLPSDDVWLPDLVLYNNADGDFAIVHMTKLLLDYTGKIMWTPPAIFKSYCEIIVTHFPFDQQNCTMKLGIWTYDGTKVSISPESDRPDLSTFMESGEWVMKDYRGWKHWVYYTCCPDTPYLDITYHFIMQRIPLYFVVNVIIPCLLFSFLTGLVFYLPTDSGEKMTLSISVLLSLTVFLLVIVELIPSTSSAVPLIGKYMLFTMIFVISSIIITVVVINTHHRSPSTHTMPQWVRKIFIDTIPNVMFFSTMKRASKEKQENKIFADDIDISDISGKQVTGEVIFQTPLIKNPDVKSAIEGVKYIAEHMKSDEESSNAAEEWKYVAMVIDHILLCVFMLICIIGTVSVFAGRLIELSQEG
Acetylcholine receptor subunit alpha (Tetronarce californica) + Acetylcholine receptor subunit beta (Tetronarce californica) + Acetylcholine receptor subunit gamma (Tetronarce californica) + Acetylcholine receptor subunit delta (Tetronarce californica), sequence (P02712 whole entry, looked up): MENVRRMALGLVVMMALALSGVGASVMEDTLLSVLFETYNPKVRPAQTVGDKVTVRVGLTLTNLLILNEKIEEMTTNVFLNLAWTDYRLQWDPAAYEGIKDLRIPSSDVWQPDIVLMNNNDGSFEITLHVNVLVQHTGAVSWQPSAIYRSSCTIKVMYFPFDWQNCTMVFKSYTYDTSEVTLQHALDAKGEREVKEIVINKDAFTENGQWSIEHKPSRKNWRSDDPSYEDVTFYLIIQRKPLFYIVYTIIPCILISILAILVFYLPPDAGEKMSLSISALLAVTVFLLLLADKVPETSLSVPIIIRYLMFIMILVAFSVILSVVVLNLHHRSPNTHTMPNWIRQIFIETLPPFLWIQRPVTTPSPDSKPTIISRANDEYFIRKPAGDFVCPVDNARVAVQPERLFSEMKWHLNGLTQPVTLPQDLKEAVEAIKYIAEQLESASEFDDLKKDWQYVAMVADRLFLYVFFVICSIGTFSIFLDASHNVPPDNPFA
Acetylcholine receptor subunit alpha (Tetronarce californica) + Acetylcholine receptor subunit beta (Tetronarce californica) + Acetylcholine receptor subunit gamma (Tetronarce californica) + Acetylcholine receptor subunit delta (Tetronarce californica), sequence (P02714 whole entry, looked up): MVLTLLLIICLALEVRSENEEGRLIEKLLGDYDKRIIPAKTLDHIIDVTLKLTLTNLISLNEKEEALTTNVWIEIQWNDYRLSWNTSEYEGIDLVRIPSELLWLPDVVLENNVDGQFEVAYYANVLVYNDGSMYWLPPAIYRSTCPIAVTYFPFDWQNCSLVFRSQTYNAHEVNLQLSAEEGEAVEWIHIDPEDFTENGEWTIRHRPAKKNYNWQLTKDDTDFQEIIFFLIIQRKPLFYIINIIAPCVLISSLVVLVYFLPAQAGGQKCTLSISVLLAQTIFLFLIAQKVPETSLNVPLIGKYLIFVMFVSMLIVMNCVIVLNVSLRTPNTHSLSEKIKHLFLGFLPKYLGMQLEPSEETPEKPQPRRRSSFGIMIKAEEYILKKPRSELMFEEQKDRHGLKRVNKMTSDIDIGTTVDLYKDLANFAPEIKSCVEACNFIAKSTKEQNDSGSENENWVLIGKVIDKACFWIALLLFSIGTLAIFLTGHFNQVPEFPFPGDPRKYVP
Acetylcholine receptor subunit alpha (Tetronarce californica) + Acetylcholine receptor subunit beta (Tetronarce californica) + Acetylcholine receptor subunit gamma (Tetronarce californica) + Acetylcholine receptor subunit delta (Tetronarce californica), sequence (P02718 whole entry, looked up): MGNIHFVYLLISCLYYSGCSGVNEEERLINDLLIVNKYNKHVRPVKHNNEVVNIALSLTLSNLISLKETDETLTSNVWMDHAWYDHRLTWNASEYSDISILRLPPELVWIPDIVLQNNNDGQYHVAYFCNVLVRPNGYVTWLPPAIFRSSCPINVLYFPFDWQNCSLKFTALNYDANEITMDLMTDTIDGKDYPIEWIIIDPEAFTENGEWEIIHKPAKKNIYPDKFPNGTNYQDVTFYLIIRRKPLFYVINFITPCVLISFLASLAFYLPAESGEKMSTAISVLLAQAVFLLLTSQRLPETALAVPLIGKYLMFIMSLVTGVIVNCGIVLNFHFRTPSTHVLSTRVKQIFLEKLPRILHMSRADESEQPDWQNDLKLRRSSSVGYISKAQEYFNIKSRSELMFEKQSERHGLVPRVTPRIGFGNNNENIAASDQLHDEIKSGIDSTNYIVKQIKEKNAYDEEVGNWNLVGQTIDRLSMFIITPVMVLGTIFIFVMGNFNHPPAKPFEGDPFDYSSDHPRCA
Consider `C[C@@H](N)[C@H](O)CCCCCCCC(=O)CCCCCCCCCCCCCC[C@@H](O[C@@H]1O[C@H](CO)[C@H](O)[C@H](O)[C@H]1O)[C@@H](C)N`, for which the inhibition constant (Ki) (usually a measure of affinity in units of concentration, obtained from inhibition or displacement) is 22 µM.
In the case of `NC1=N/C(=C2/CCNC(=O)c3[nH]ccc32)C(=O)N1`, the Ki result was “inactive”.
In the case of `COc1cc2c3c(ccnc3c1OC)NC=C2` it was 34 µM; in that of `COc1cc(CCN)c2c(c1OC)SSSSS2`, 10 µM.
Regarding `COn1c(Br)c2c3c(cccc31)[C@H]1C[C@@H](C)CN(C)[C@@H]1C2`, the Ki is 44 µM.
For `CC/C=C/[C@@H]1CC[C@]2(C[C@H]3CC[C@H]4[C@@H](C(=O)OC(CC)CCCCCCCCCCCCC[C@@H]5O[C@](O)(CCN)[C@H](O)N(CCCN)C5=O)[C@@]5(CCC[C@H](C)O5)NC(=[N+]34)N2)O1` (stereo partly specified), the inhibitory constant (Ki) is 8 µM.
